Among the test systems are TK-10 renal; SK-MEL-28 melanoma; UACC-257 melanoma; HOP-92 NSCLC; M14 melanoma; NCI/ADR-RES ovarian; RXF 393 renal; IGROV1 ovarian; K-562 leukemia; SNB-19 CNS; UACC-62 melanoma; OVCAR-4 ovarian; T-47D breast; KM12 colon; U251 CNS; HOP-62 NSCLC.
Holding throughout (assay): NCI anticancer screen, dose series, 48 h

Structures are written as SMILES.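 These data come from cells grown in 96-well plates and exposed to compound for 48 hours at five concentrations. TGI: total growth inhibition.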

For `FC1=C2CCCCCC2SC1(F)F` (configuration not stated), the TGI with TK-10 renal is > 100 µM; in the assay on SK-MEL-28 melanoma it was > 100 µM; with UACC-257 melanoma it was > 100 µM; in the assay with HOP-92 NSCLC it was 70.2 µM; in the assay with M14 melanoma, > 100 µM; with NCI/ADR-RES ovarian it was > 100 µM. Moreover, the TGI with RXF 393 renal is 33.2 µM; with IGROV1 ovarian it was > 100 µM; in the assay with K-562 leukemia it was 47.8 µM; in the assay with SNB-19 CNS, > 100 µM; in the assay on UACC-62 melanoma, > 100 µM; in the assay with OVCAR-4 ovarian, > 100 µM. Moreover, the TGI with T-47D breast and in the assay on KM12 colon was > 100 µM each time.
In the case of `CC(C)C(NCc1c(O)ccc2c(-c3ccccc3)cc(=O)oc12)C(=O)O` (configuration not stated), the TGI with TK-10 renal, with SK-MEL-28 melanoma, in the assay with U251 CNS, in the assay on UACC-257 melanoma, in the assay with HOP-92 NSCLC and in the assay on M14 melanoma was > 100 µM throughout. Further, the TGI in the assay on NCI/ADR-RES ovarian, in the assay with HOP-62 NSCLC, in the assay on RXF 393 renal, in the assay with IGROV1 ovarian, in the assay on K-562 leukemia and in the assay with SNB-19 CNS was > 100 µM throughout. Besides, the TGI in the assay with UACC-62 melanoma, in the assay with OVCAR-4 ovarian, with T-47D breast and with KM12 colon was > 100 µM each time.
`COc1cccc(-c2nc(-c3cnccn3)n(COCCO)n2)c1`: the TGI in the assay on TK-10 renal, in the assay on SK-MEL-28 melanoma, in the assay with U251 CNS, with UACC-257 melanoma, in the assay on HOP-92 NSCLC and with M14 melanoma was > 100 µM each time. Also, the TGI with NCI/ADR-RES ovarian, in the assay on HOP-62 NSCLC, with RXF 393 renal, in the assay with IGROV1 ovarian, in the assay with K-562 leukemia and in the assay on SNB-19 CNS was > 100 µM in each case. For the same compound, the TGI in the assay on UACC-62 melanoma, in the assay with OVCAR-4 ovarian, in the assay with T-47D breast and with KM12 colon was > 100 µM throughout.
For the compound `c1ccc(CC2(c3cc4ccccc4[nH]3)OCCO2)nc1`, the TGI in the assay on TK-10 renal, in the assay with SK-MEL-28 melanoma, in the assay on U251 CNS, in the assay with UACC-257 melanoma, with HOP-92 NSCLC and in the assay with M14 melanoma was > 100 µM throughout. In addition, the TGI in the assay on NCI/ADR-RES ovarian, in the assay with HOP-62 NSCLC, with RXF 393 renal, in the assay with IGROV1 ovarian, with K-562 leukemia and with SNB-19 CNS was > 100 µM each time. The TGI in the assay on UACC-62 melanoma, with T-47D breast and in the assay with KM12 colon was > 100 µM each time.
Consider `O=c1ccn(C2OC(CN(O)CCC3C(CO)OC(n4ccc(=O)[nH]c4=O)C3O)C(O)C2O)c(=O)[nH]1` (configuration not stated), for which the TGI in the assay with TK-10 renal, in the assay on SK-MEL-28 melanoma, in the assay on U251 CNS, in the assay with UACC-257 melanoma, in the assay on HOP-92 NSCLC and in the assay with M14 melanoma was > 100 µM each time. Besides, the TGI in the assay on NCI/ADR-RES ovarian, in the assay with HOP-62 NSCLC, in the assay on RXF 393 renal, in the assay with IGROV1 ovarian, in the assay on K-562 leukemia and in the assay on SNB-19 CNS was > 100 µM each time. Besides, the TGI in the assay on UACC-62 melanoma, in the assay on OVCAR-4 ovarian, in the assay with T-47D breast and in the assay on KM12 colon was > 100 µM throughout.
With `Cc1nc2c(=O)n3c4c(cccc4c2o1)CCC3`, the TGI in the assay on TK-10 renal, in the assay with SK-MEL-28 melanoma, in the assay on U251 CNS, in the assay with UACC-257 melanoma, in the assay with HOP-92 NSCLC and with M14 melanoma was > 100 µM throughout. The TGI in the assay with NCI/ADR-RES ovarian, with HOP-62 NSCLC, in the assay with RXF 393 renal, in the assay on IGROV1 ovarian, with K-562 leukemia and in the assay with SNB-19 CNS was > 100 µM in each case. In addition, the TGI with UACC-62 melanoma, with OVCAR-4 ovarian, with T-47D breast and with KM12 colon was > 100 µM in each case.
Regarding `CCOC(=O)C(=O)C(CCC(=O)c1ccc2ccccc2c1O)C(=O)OCC` (configuration not stated), the TGI in the assay on SK-MEL-28 melanoma, with U251 CNS, in the assay on UACC-257 melanoma, in the assay on HOP-92 NSCLC, in the assay with M14 melanoma and in the assay on NCI/ADR-RES ovarian was > 100 µM each time. In addition, the TGI in the assay with RXF 393 renal, in the assay on IGROV1 ovarian, in the assay on K-562 leukemia, with SNB-19 CNS, in the assay on UACC-62 melanoma and in the assay with OVCAR-4 ovarian was > 100 µM each time. The TGI in the assay with T-47D breast and with KM12 colon was > 100 µM throughout.
With `N#CCCN(CCN(CCC#N)C(=O)Nc1ccccc1)C(=O)Nc1ccccc1`, the TGI in the assay with TK-10 renal, in the assay with SK-MEL-28 melanoma, in the assay with U251 CNS, in the assay on UACC-257 melanoma, with HOP-92 NSCLC and with M14 melanoma was > 100 µM in each case. Besides, the TGI was > 100 µM with NCI/ADR-RES ovarian; 55 µM in the assay on HOP-62 NSCLC; 75.3 µM in the assay on RXF 393 renal; > 100 µM with IGROV1 ovarian; > 100 µM in the assay with K-562 leukemia; > 100 µM in the assay with SNB-19 CNS. The TGI with UACC-62 melanoma and in the assay with T-47D breast was > 100 µM throughout.
`Cc1c(C)c(S(=O)(=O)N(CCCCCON)OCCCN)c(C)c2c1OC(C)(C)CC2`: the TGI with TK-10 renal came out at 27.5 µM; in the assay on SK-MEL-28 melanoma, 32.2 µM; in the assay with U251 CNS it was 25.7 µM; with UACC-257 melanoma, 29.5 µM; in the assay with HOP-92 NSCLC, 23 µM; in the assay on M14 melanoma, 18.8 µM. Besides, the TGI is 31 µM in the assay on NCI/ADR-RES ovarian; 31.8 µM in the assay on HOP-62 NSCLC; 25.1 µM in the assay on RXF 393 renal; 23.4 µM in the assay on IGROV1 ovarian; > 40.3 µM in the assay with K-562 leukemia; 28.9 µM in the assay with SNB-19 CNS. The TGI was found to be 27.4 µM with UACC-62 melanoma, 21.5 µM in the assay on OVCAR-4 ovarian, 16.8 µM in the assay on T-47D breast and 27.3 µM with KM12 colon.

The values above are taken from PubChem BioAssay (NCI).
